One test addresses T1, androgen receptor (AR) (Homo sapiens, UniProt P10275).
T1 construct: endogenous in cells
T1 sequence (P10275 1-920): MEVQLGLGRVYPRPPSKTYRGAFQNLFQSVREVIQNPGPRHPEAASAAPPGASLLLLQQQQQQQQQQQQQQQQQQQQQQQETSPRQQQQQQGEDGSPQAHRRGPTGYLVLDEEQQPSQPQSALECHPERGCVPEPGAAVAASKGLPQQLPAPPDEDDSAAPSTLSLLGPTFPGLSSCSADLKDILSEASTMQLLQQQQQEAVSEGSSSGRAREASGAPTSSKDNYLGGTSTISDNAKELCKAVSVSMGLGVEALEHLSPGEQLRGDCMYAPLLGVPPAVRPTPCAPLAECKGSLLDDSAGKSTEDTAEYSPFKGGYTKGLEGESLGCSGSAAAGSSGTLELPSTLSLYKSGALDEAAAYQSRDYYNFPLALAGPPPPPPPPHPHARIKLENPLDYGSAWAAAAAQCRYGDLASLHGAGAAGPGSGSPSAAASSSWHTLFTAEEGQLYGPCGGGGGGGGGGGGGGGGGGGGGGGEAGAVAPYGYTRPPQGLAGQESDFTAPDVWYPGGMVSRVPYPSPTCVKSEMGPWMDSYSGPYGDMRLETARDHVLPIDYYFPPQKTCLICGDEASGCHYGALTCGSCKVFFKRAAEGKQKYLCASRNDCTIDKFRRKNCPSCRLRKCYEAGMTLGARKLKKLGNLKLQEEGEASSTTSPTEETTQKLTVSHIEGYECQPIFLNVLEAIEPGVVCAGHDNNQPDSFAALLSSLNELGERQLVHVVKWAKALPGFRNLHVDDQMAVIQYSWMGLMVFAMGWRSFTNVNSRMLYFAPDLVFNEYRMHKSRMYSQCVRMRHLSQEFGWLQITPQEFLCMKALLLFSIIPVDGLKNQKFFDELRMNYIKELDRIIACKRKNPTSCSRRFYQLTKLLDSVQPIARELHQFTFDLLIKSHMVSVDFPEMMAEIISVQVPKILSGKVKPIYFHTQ
Put plainly: Androgen receptor degradation, western blot. In kind it is cell-based. The note with it: AR degradation potency, cell line not stated. As to the method:
Western blot analysis was performed essentially as described previously. The cells treated with indicated compounds were lysed in Radioimmunoprecipitation Assay Protein Lysis and Extraction Buffer (25 mmol/L Tris.HCl, pH 7.6, 150 mmol/L NaCl, 1% Nonidet P-40, 1% sodium deoxycholate, and 0.1% sodium dodecyl sulfate) containing proteinase inhibitor cocktail (Roche Diagnostics, Mannheim, Germany). Equal amounts of total protein were electrophoresed through 10% SDS-polyacrylamide gels after determination of protein concentration by BCA assay (Fisher Scientific, Pittsburgh, PA). The separated protein bands were transferred onto PVDF membranes (GE Healthcare Life Sciences, Marlborough, MA) and blotted against different antibodies, as indicated. The blots were scanned, and the band intensities were quantified using GelQuant.NET software provided by biochemlabsolutions.com. The relative mean intensity of target proteins was expressed after normalization to the intensity of glyceraldehyde-3-phosphate dehydrogenase bands.
(In general: Immunoblotting shows a protein as a band on a membrane.)

A further test addresses T2, BRD9 (Homo sapiens, UniProt Q9H8M2).
T2 construct: endogenous in cells; host or cells: HEK293 (CRISPR HiBiT knock-in)
The test is described as follows: BRD9 HiBiT assay for protein degradation (HEK293 CRISPR knock-in). Type of test: cell-based. To be noted: for Dmax: HEK293, read-out: BRD9 HEK293 HiBit Dmax; for DC50: HEK293 CRISPR knock-in cells, 6 hrs. As to the method:
HiBiT Assay for protein degradation:
The HiBit assay was performed using engineered HEK293 CRISPR knock-in cell utilizing the Nano-Glo HiBiT Lytic Detection System from Promega, Cat #N3040. Compounds were transferred, 25 nL DMSO or test compounds (final DMSO @ 0.1%) to intermediate plates (Corning3570) using ECHO550. Cells were seeded onto compounds at 2000 cells/25 μL/well and incubated for 6 hrs in tissue culture incubator at 37° C. and 5% CO2. The LgBiT Protein was diluted at 1:100 and the Nano-Glo® HiBiT Lytic Substrate 1:50 into an appropriate volume of room temperature using the Nano-Glo® HiBiT Lytic Buffer. At end of compound incubation time 15 ul of the detection reagent was added to each well (without LgBiT for negative control wells) using the Thermo Scientific multidrop combi. The plate was shaken for 10 mins at RT using Combi. After brief centrifugation (2000 rpm 1 mins), plate was read on Envision (Ultrasensitive luminescence model).
In general terms: With HiBiT, luminescence reflects the tagged protein that the partner subunit can reach.

Test [1] concerns the target GST-tagged wild-type human CRBN protein (Homo sapiens, UniProt Q96SW2). Put plainly: biochemical.
Experimental: The binding to cereblon (CRBN) was determined using the Cereblon Binding Kit (Cisbio, #64BDCRBNPEG) following the manufacturer's instruction. Briefly, serially diluted compounds were incubated with GST-tagged wild-type human CRBN protein, XL665-labelled Thalidomide and Europium Cryptate labelled GST antibody at room temperature for about 3 hours.

Drawing on patent US20250195484A1, “CEREBLON LIGANDS AND USES THEREOF” (priority 2022, published 2025), this text covers Dmax, DC50 and IC50 for 7 molecules.

SMILES strings stand for the structures.

By Dmax is commonly meant the largest share of the target that was removed. The term DC50 denotes the concentration at which degradation of the target reaches its halfway point. Usually IC50 stands for the concentration that inhibits the measured activity by half. Higher therefore signals lower potency.

T2 sequence (Q9H8M2 whole entry): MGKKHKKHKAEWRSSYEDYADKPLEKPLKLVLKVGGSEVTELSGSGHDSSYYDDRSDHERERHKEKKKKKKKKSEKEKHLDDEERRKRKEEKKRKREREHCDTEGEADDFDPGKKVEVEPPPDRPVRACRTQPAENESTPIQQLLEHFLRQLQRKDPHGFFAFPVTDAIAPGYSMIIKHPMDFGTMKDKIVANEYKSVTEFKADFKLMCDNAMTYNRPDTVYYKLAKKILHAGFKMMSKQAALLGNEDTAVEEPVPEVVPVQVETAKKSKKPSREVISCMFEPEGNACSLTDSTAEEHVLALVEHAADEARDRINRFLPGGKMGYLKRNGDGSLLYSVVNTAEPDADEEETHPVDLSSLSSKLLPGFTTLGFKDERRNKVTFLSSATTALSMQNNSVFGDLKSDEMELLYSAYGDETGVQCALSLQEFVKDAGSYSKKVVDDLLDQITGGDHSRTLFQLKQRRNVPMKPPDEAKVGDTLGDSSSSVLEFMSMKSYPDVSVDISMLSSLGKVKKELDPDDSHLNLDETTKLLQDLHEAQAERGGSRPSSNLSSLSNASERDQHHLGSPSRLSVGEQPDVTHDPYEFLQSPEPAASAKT
Chain of GST-tagged wild-type human CRBN protein (Q96SW2 whole entry): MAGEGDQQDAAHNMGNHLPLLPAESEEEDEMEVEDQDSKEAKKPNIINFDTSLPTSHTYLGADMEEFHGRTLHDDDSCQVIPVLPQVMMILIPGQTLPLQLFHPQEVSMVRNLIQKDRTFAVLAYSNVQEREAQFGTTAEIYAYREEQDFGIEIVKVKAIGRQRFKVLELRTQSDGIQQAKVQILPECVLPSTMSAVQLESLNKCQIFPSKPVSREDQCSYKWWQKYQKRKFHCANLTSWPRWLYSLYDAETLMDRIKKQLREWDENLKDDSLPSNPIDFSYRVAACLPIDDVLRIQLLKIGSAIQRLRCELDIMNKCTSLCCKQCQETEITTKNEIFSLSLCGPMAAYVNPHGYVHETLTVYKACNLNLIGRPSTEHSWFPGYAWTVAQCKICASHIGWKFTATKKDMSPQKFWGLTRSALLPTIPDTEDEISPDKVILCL

`CN(c1ccc(C#N)c(Cl)c1)[C@H]1CC[C@H](NC(=O)c2ccc(N3CCC(CN4CCC5(CC4)COc4c5ccc5c4CN([C@H]4CCC(=O)NC4=O)C5=O)CC3)nn2)CC1` [ARD-4, N-((1r,4r)-4-((3-chloro-4-cyanophenyl)(methyl)amino)cyclohexyl)-6-(4-((7-((S)-2,6-dioxopiperidin-3-yl)-6-oxo-7,8-dihydro-2H,6H-spiro[furo[2,3-e]isoindole-3,4′-piperidin]-1′-yl)methyl)piperidin-1-yl)pyridazine-3-carboxamide] gave a maximal degradation (Dmax) on androgen receptor (AR) of over 75%.

Take `COc1cc(-c2cn(C)c(=O)c(C)c2C)cc(OC)c1C(=O)N1CCC2(CCC(CN3CCC4(CC3)COc3c4ccc4c3C(=O)N(C3CCC(=O)NC3=O)C4=O)CC2)CC1` (stereo not drawn) [BRD-2, 1′-((3-(2,6-dimethoxy-4-(1,4,5-trimethyl-6-oxo-1,6-dihydropyridin-3-yl)benzoyl)-3-azaspiro[5.5]undecan-9-yl)methyl)-7-(2,6-dioxopiperidin-3-yl)-7-hydro-2H,6H-spiro[furo[2,3-e]isoindole-3,4′-piperidine]-6,8-dione]: at BRD9, the Dmax was over 90% and the DC50 was in the range of 10 to 100 nM.

Take `N#Cc1ccc(O[C@H]2CC[C@H](NC(=O)c3ccc(N4CCC(CN5CCC6(CC5)COc5c6ccc6c5CN([C@H]5CCC(=O)NC5=O)C6=O)CC4)nn3)CC2)cc1Cl` [ARD-3, N-((1r,4r)-4-(3-chloro-4-cyanophenoxy)cyclohexyl)-6-(4-((7-((S)-2,6-dioxopiperidin-3-yl)-6-oxo-7,8-dihydro-2H,6H-spiro[furo[2,3-e]isoindole-3,4′-piperidin]-1′-yl)methyl)piperidin-1-yl)pyridazine-3-carboxamide]: the maximal degradation (Dmax) on androgen receptor (AR) is over 75%.

`C[C@@H]1N(c2ccc(C#N)c(Cl)c2)CCC12CCN(c1ccc(C(=O)N3CCC(CN4CCC5(CC4)COc4c5ccc5c4CN([C@H]4CCC(=O)NC4=O)C5=O)CC3)cc1)CC2` [ARD-2] had a maximal degradation (Dmax) at androgen receptor (AR) of over 75%.

For the molecule `O=C1CCC(N2Cc3c(ccc4c3OCC43CCNCC3)C2=O)C(=O)N1` (stereo not drawn) [Compound B1, 3-(6-oxo-6,8-dihydro-2H,7H-spiro[furo[2,3-e]isoindole-3,4′-piperidin]-7-yl)piperidine-2,6-dione], inhibition in test [1] was half-maximal at 1000 nM (IC50).

Turning to `COc1cc(-c2cn(C)c(=O)c3cnc(N4CCC4)cc23)cc(OC)c1C(=O)N1CCC2(CCC(CN3CCC4(CC3)COc3c4ccc4c3CN(C3CCC(=O)NC3=O)C4=O)CC2)CC1` (stereo not drawn) [BRD-1, 3-(1′-((3-(4-(6-(azetidin-1-yl)-2-methyl-1-oxo-1,2-dihydro-2,7-naphthyridin-4-yl)-2,6-dimethoxybenzoyl)-3-azaspiro[5.5]undecan-9-yl)methyl)-6-oxo-6,8-dihydro-2H,7H-spiro[furo[2,3-e]isoindole-3,4′-piperidin]-7-yl)piperidine-2,6-dione], at BRD9, the Dmax is over 90% and the DC50 is under 10 nM.

On androgen receptor (AR), `C[C@H]1CC2(CCN(c3ccc(C(=O)N4CCC(CN5CCC6(CC5)COc5c6ccc6c5CN([C@H]5CCC(=O)NC5=O)C6=O)CC4)cc3)CC2)CN1c1ccc(C#N)c(Cl)c1` [ARD-1, 2-chloro-4-((S)-8-(4-(4-((7-((S)-2,6-dioxopiperidin-3-yl)-6-oxo-7,8-dihydro-2H,6H-spiro[furo[2,3-e]isoindole-3,4′-piperidin]-1′-yl)methyl)piperidine-1-carbonyl)phenyl)-3-methyl-2,8-diazaspiro[4.5]decan-2-yl)benzonitrile] yielded a Dmax of over 75%.
